From ChEMBL document CHEMBL1201862, “PubChem BioAssay data set” (2004)
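Exposure lasted 48 hours, with cells grown in 96-well plates and compounds tested at five concentrations. GI50: concentration for 50% inhibition of growth.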 Activity calls are given as the source filed them. No stated cut-off is given here; in the data, active = GI50 up to about 1.1 µM and inactive = higher.

Legend:
Experiment in all cases: NCI tumour cell line growth inhibition, 48 h
A498 = tested on: A498
CAKI-1 = tested on: CAKI-1
CCRF-CEM = tested on: CCRF-CEM
HOP-92 = tested on: HOP-92
HT-29 = tested on: HT-29
K562 = tested on: K562
MOLT-4 = tested on: MOLT-4
NCI-H522 = tested on: NCI-H522
NCI/ADR-RES = tested on: NCI/ADR-RES
PC-3 = tested on: PC-3
RPMI-8226 = tested on: RPMI-8226
RXF 393 = tested on: RXF 393
SF-268 = tested on: SF-268
SF-539 = tested on: SF-539
SK-MEL-28 = tested on: SK-MEL-28
SK-OV-3 = tested on: SK-OV-3
SN12C = tested on: SN12C
T47D = tested on: T47D
TK-10 = tested on: TK-10
UO-31 = tested on: UO-31

Row | SMILES | GI50 (A498) | GI50 (CAKI-1) | GI50 (CCRF-CEM) | GI50 (HOP-92) | GI50 (HT-29) | GI50 (K562) | GI50 (MOLT-4) | GI50 (NCI-H522) | GI50 (NCI/ADR-RES) | GI50 (PC-3) | GI50 (RPMI-8226) | GI50 (RXF 393) | GI50 (SF-268) | GI50 (SF-539) | GI50 (SK-MEL-28) | GI50 (SK-OV-3) | GI50 (SN12C) | GI50 (T47D) | GI50 (TK-10) | GI50 (UO-31)
1 | CN(C)c1ccc(/C=C/C(=O)c2ccc(O)cc2)cc1 | 17.1 µM (inactive) | 12.9 µM (inactive) | 2.83 µM (inactive) | 38.2 µM (inactive) | 5.21 µM (inactive) | 1.7 µM (inactive) | 2.64 µM (inactive) | 2.71 µM (inactive) | 2.98 µM (inactive) | 14.8 µM (inactive) | 3.85 µM (inactive) | 6.27 µM (inactive) | 15.4 µM (inactive) | 3.2 µM (inactive) | 4.88 µM (inactive) | 4.78 µM (inactive) | 5.37 µM (inactive) | 13.5 µM (inactive) | 35.3 µM (inactive) | 14.4 µM (inactive)
2 | Cc1ccc(-c2nnc(-c3ccc4ccccc4c3)o2)cc1 | > 100 µM (inactive) | 5.19 µM (inactive) | 3.55 µM (inactive) | > 51.6 µM (inactive) | > 87.9 µM (inactive) | 7.26 µM (inactive) | 3.13 µM (inactive) | 69.7 µM (inactive) | 12.7 µM (inactive) | 52.2 µM (inactive) | 6.78 µM (inactive) | 5.87 µM (inactive) | 9.31 µM (inactive) | 19.6 µM (inactive) | 33.3 µM (inactive) | 56.2 µM (inactive) | 14.6 µM (inactive) | 19.2 µM (inactive) | 7.94 µM (inactive) | 15.1 µM (inactive)
3 | CN(N=O)c1ccc(/C=C/c2ccnc3ccccc23)cc1 | 60.4 µM (inactive) | 42.3 µM (inactive) | 47.3 µM (inactive) | > 100 µM (inactive) | 43.3 µM (inactive) | 78.9 µM (inactive) | 34 µM (inactive) | 46.6 µM (inactive) | 83.4 µM (inactive) | 76.4 µM (inactive) |  | 46.6 µM (inactive) | 79.8 µM (inactive) | 88.5 µM (inactive) | > 100 µM (inactive) | > 100 µM (inactive) | 37.6 µM (inactive) | 50.4 µM (inactive) | 29.4 µM (inactive) | 30.4 µM (inactive)
4 | CC#CCCN(CC#N)Cc1ccccc1 | 20.4 µM (inactive) | > 100 µM (inactive) | > 100 µM (inactive) | > 100 µM (inactive) | > 100 µM (inactive) | > 100 µM (inactive) | > 100 µM (inactive) | > 100 µM (inactive) | > 100 µM (inactive) | > 100 µM (inactive) | > 100 µM (inactive) | > 100 µM (inactive) | > 100 µM (inactive) |  | > 100 µM (inactive) | > 100 µM (inactive) | > 100 µM (inactive) | > 100 µM (inactive) | > 100 µM (inactive) | > 100 µM (inactive)
5 | O=[N+]([O-])c1cccc2nc3ccccc3c(NCCCN3CCOCC3)c12 | < 0.0146 µM (active) | 0.0221 µM (active) | < 0.0199 µM (active) | 0.0159 µM (active) | < 0.01 µM (active) | 0.015 µM (active) | < 0.01 µM (active) | 0.0168 µM (active) | 0.044 µM (active) | 0.0219 µM (active) | 0.0103 µM (active) | < 0.013 µM (active) | 0.0226 µM (active) | 0.0283 µM (active) | 0.034 µM (active) | 0.0362 µM (active) | < 0.0132 µM (active) | 0.0355 µM (active) | 0.029 µM (active) | 0.0144 µM (active)
6 | O=C(Nc1ccccc1C(=O)O)/C(=C/c1ccccc1)NC(=O)c1ccccc1 | > 100 µM (inactive) | > 100 µM (inactive) | > 100 µM (inactive) | > 100 µM (inactive) | > 100 µM (inactive) | > 100 µM (inactive) | > 100 µM (inactive) | > 100 µM (inactive) | > 100 µM (inactive) | > 100 µM (inactive) | > 100 µM (inactive) | 65.9 µM (inactive) | > 100 µM (inactive) | > 100 µM (inactive) | > 100 µM (inactive) | > 100 µM (inactive) | > 100 µM (inactive) | > 100 µM (inactive) |  | > 100 µM (inactive)
7 | CC(=O)O[C@H]1C[C@@H](OC(C)=O)[C@@](C)(O)[C@@H]2[C@@H](OC(C)=O)[C@@]3(O)[C@H](/C=C(/CO)[C@H]4O[C@H]4[C@@H](OC(C)=O)[C@@]12C)OC(=O)[C@@H]3C | > 25 µM (inactive) | 17.7 µM (inactive) | 6.59 µM (inactive) | 17.5 µM (inactive) | 11 µM (inactive) | 17.7 µM (inactive) | 16.4 µM (inactive) | 5.42 µM (inactive) | > 25 µM (inactive) | 6.04 µM (inactive) | 9.86 µM (inactive) | 2.08 µM (inactive) | 19.1 µM (inactive) |  | 22.3 µM (inactive) | 11.9 µM (inactive) | 12.2 µM (inactive) | 22.4 µM (inactive) | > 25 µM (inactive) | 22.5 µM (inactive)
8 | O=c1c(=O)c2c(Br)sc(Br)c2c1=O | > 100 µM (inactive) | 19.1 µM (inactive) |  | 17.9 µM (inactive) | 25 µM (inactive) | 21.4 µM (inactive) | 24.3 µM (inactive) | 16.1 µM (inactive) | 32.7 µM (inactive) | 19.2 µM (inactive) | 21.6 µM (inactive) | 18.7 µM (inactive) | 33 µM (inactive) | 19.5 µM (inactive) | 14.7 µM (inactive) | 43.8 µM (inactive) | 17.3 µM (inactive) | 20 µM (inactive) | 22.1 µM (inactive) | 33 µM (inactive)
9 | C1COC2SC3=C(SC(=C4SC5=C(SCCS5)S4)S3)SC2O1 (stereo unspecified) | > 100 µM (inactive) | > 100 µM (inactive) | > 100 µM (inactive) | > 100 µM (inactive) | > 100 µM (inactive) | 73.1 µM (inactive) | > 100 µM (inactive) | 31.8 µM (inactive) | > 100 µM (inactive) | > 100 µM (inactive) |  | > 100 µM (inactive) | > 100 µM (inactive) | 44 µM (inactive) | > 100 µM (inactive) | 72.3 µM (inactive) | > 100 µM (inactive) | 60.4 µM (inactive) | > 100 µM (inactive) | > 100 µM (inactive)
10 | Clc1ccc(C2=NNC(c3cccc(Cl)c3)C2)cc1 (stereo unspecified) | 20 µM (inactive) | 26.2 µM (inactive) | 29 µM (inactive) | 10.8 µM (inactive) | 36.9 µM (inactive) | 37.4 µM (inactive) | 27.1 µM (inactive) | 2.98 µM (inactive) | 26.5 µM (inactive) | 24.9 µM (inactive) | 17.1 µM (inactive) | 31.3 µM (inactive) | 29.3 µM (inactive) | 37.2 µM (inactive) |  | 22 µM (inactive) | 21.4 µM (inactive) | 44.6 µM (inactive) | 26.4 µM (inactive) | 1.9 µM (inactive)
11 | O=c1c2cc(I)ccc2nc(SCc2nnco2)n1Cc1ccccc1 | 50.8 µM (inactive) | > 100 µM (inactive) | 10.8 µM (inactive) | 35.6 µM (inactive) | 60.5 µM (inactive) |  | 0.1 µM (active) | 44 µM (inactive) | > 100 µM (inactive) | > 100 µM (inactive) | > 100 µM (inactive) | 58.1 µM (inactive) | > 100 µM (inactive) | > 100 µM (inactive) | > 100 µM (inactive) | > 100 µM (inactive) | 49.1 µM (inactive) | > 100 µM (inactive) | 87.9 µM (inactive) | 1.39 µM (inactive)
12 | COc1ccc(C(OCC2OC(n3cc(C)c(=O)[nH]c3=O)CC2n2cc(Cn3cc(I)c(=O)[nH]c3=O)nn2)(c2ccccc2)c2ccccc2)cc1 (stereo unspecified) | > 100 µM (inactive) | > 100 µM (inactive) | 11.2 µM (inactive) | > 100 µM (inactive) | > 100 µM (inactive) |  | 7.67 µM (inactive) | > 100 µM (inactive) | > 100 µM (inactive) | > 100 µM (inactive) | 15.2 µM (inactive) | > 100 µM (inactive) | 78.5 µM (inactive) | > 100 µM (inactive) | > 100 µM (inactive) | > 100 µM (inactive) | > 100 µM (inactive) | > 100 µM (inactive) | > 100 µM (inactive) | > 100 µM (inactive)
13 | Nc1nc(N)c2ncn(-c3ccc(Cl)cc3)c2n1 | 21.8 µM (inactive) | 20.4 µM (inactive) | 20.9 µM (inactive) | 24.8 µM (inactive) | 35.1 µM (inactive) |  |  | 28.6 µM (inactive) | 33.7 µM (inactive) | 35.7 µM (inactive) |  | 19.3 µM (inactive) |  | 27.4 µM (inactive) | > 100 µM (inactive) | 20.5 µM (inactive) | 36.6 µM (inactive) | 25.5 µM (inactive) | 20 µM (inactive) | 32.3 µM (inactive)
14 | CCC12CN(C(=O)OC)C3C(Br)C1CCC(=O)C32 (stereo unspecified) | > 100 µM (inactive) | > 100 µM (inactive) | > 100 µM (inactive) | > 100 µM (inactive) | > 100 µM (inactive) | > 100 µM (inactive) | > 100 µM (inactive) | 84.1 µM (inactive) | > 100 µM (inactive) | > 100 µM (inactive) | > 100 µM (inactive) | > 100 µM (inactive) | > 100 µM (inactive) | > 100 µM (inactive) | > 100 µM (inactive) | > 100 µM (inactive) |  | > 100 µM (inactive) | > 100 µM (inactive) | > 100 µM (inactive)
